Data from patent US20110065723A1, “COMPOSITIONS OF N-BENZYL-3-(4-CHLOROPHENYL)-2-[METHYL-[2-OXO-2-(3,4,5-TRIMETHOXYPHENYL)ACETYL]AMINO]-N-[3-(4-PYRIDYL)-1-[2-(4-PYRIDYL)ETHYL]PROPYL]PROPANAMIDE AND USES THEREOF” (priority 2009, published 2011).

Experiments:
[1] = tested on: Mycobacterium tuberculosis Erdman strain (Mtb ATCC 35801); test: Susceptibility testing (broth microdilution MIC) with or without TIM; type: cell-based; settings: TIM 10 μg/ml
Mtb Erdman = test: Mouse infection model (lung CFU); type: in vivo, C57BL/6 mice; settings: mice, lungs; TIM 200, INH 25 mg/kg; 4 weeks; FIG. 4B; not to the same extent as RIF, statistically significant
[2] = tested on: Mycobacterium tuberculosis Erdman strain in macrophages; test: Mtb-THP-1 macrophage infection screening assay; type: cell-based
in vivo = settings: C57BL/6, mouse, po, 10 mg/kg; for AUC(0-inf): RIF AUCinf Plasma; for Cmax: RIF Cmax Plasma
[3] = RIF 10 mg/kg + TIM 200 mg/kg dosed 6 hours prior to RIF

CO[C@H]1/C=C/O[C@@]2(C)Oc3c(C)c(O)c4c(O)c(c(/C=N/N5CCN(C6CCCC6)CC5)c(O)c4c3C2=O)NC(=O)/C(C)=C\C=C\[C@H](C)[C@H](O)[C@@H](C)[C@@H](O)[C@@H](C)[C@H](OC(C)=O)[C@@H]1C [Rifapentine, rifapentine]
in vitro effect of TIM on the activity of the drug against Mtb [1]: no in vitro effect

CC(=O)NC[C@H]1CN(c2ccc(N3CCOCC3)c(F)c2)C(=O)O1 [Linezolid]
in vitro effect of TIM on the activity of the drug against Mtb [1]: no in vitro effect

CC(=O)NC[C@H]1CN(c2ccc(N3CCSCC3)c(F)c2)C(=O)O1 [U-100480]
in vitro effect of TIM on the activity of the drug against Mtb [1]: no in vitro effect

COc1nc2ccc(Br)cc2cc1[C@@H](c1ccccc1)[C@@](O)(CCN(C)C)c1cccc2ccccc12 [TMC-207]
potentiating effect of TIM on the activity against Mtb ([1]; MIC without vs with TIM): 15 fold

acriflavin
in vitro effect of TIM on the activity of the drug against Mtb [1]: no in vitro effect

COc1c(N2CCNC(C)C2)c(F)cc2c(=O)c(C(=O)O)cn(C3CC3)c12 (centres unmarked) [gatifloxacin]
in vitro effect of TIM on the activity of the drug against Mtb [1]: no in vitro effect

NNC(=O)c1ccncc1 [Isoniazid, isoniazid]
in vitro effect of TIM on the activity of the drug against Mtb [1]: no in vitro effect | effect of TIM on activity in vivo (Mtb Erdman): does enhance INH activity in vivo

CCc1cc(C(N)=S)ccn1 [ethionamide]
in vitro effect of TIM on the activity of the drug against Mtb [1]: no in vitro effect

CO[C@H]1/C=C/O[C@@]2(C)Oc3c(C)c(O)c4c(O)c(c(/C=N/N5CCN(C)CC5)c(O)c4c3C2=O)NC(=O)/C(C)=C\C=C\[C@H](C)[C@H](O)[C@@H](C)[C@@H](O)[C@@H](C)[C@H](OC(C)=O)[C@@H]1C [RIF, rifampicin]
Log10 CFU ([2]; Drug conc. 0.04 ug/mL): 4.71 Log10 CFU | Log10 CFU ([2]; Drug conc. 0.1 ug/mL): 4.47 Log10 CFU | Log10 CFU ([2]; Drug conc. 0.4 ug/mL): 4.58 Log10 CFU | Log10 CFU ([2]; Drug conc. 1.1 ug/mL): 3.98 Log10 CFU | Log10 CFU ([2]; Drug conc. 3.3 ug/mL): 1.94 Log10 CFU | Log10 CFU ([2]; Drug conc. 10 ug/mL): 2.12 Log10 CFU | Log10 CFU ([2]; Drug conc. 30 ug/mL): 1.10 Log10 CFU | AUC(0-inf) (in vivo; [3]): 153 µg·h/mL | AUC(0-inf) (in vivo; RIF 10 mg/kg alone): 152 µg·h/mL | Cmax (in vivo; [3]): 14900 ng/mL | Cmax (in vivo; RIF 10 mg/kg alone): 19800 ng/mL
